From US9738644B2, “Chemical compounds, compositions and methods for kinase modulation” (Infinity Pharmaceuticals, Inc., priority 2010, dated 2017) come the findings set out here.

For orientation: IC50 means the point on the concentration scale where inhibition reaches its midpoint. Higher therefore signals weaker potency.

pEC50: −log10 of the molar value. Like-named read-outs stand apart in the source and are kept apart here.

One assay addresses T1, PI3K γ (Homo sapiens, UniProt P48736).
T1 construct: purchased Sigma
Description: In vitro PI3K γ inhibition assay. Type of assay: biochemical. The procedure:
(§1) Class I PI3-Ks can be either purchased (p110α/p85α, p110β/p85α, p110δ/p85α from Upstate, and p110γ from Sigma) or expressed as previously described (Knight et al., 2004). IC50 values are measured using either a standard TLC assay for lipid kinase activity (described below) or a high-throughput membrane capture assay. Kinase reactions are performed by preparing a reaction mixture containing kinase, inhibitor (2% DMSO final concentration), buffer (25 mM HEPES, pH 7.4, 10 mM MgCl2), and freshly sonicated phosphatidylinositol (100 μg/ml). Reactions are initiated by the addition of ATP containing 10 μCi of γ-32P-ATP to a final concentration of 10 or 100 μM and allowed to proceed for 5 minutes at room temperature. For TLC analysis, reactions are then terminated by the addition of 105 μl 1N HCl followed by 160 μl CHCl3:MeOH (1:1). The biphasic mixture is vortexed, briefly centrifuged, and the organic phase is transferred to a new tube using a gel loading pipette tip precoated with CHCl3. This extract is spotted on TLC plates and developed for 3-4 hours in a 65:35 solution of n-propanol:1M acetic acid. The TLC plates are then dried, exposed to a phosphorimager screen (Storm, Amersham), and quantitated. For each compound, kinase activity is measured at 10-12 inhibitor concentrations representing two-fold dilutions from the highest concentration tested (typically, 200 μM). […] Other commercial kits or systems for assaying PI3-K activities are available. The commercially available kits or systems can be used to screen for inhibitors and/or agonists of PI3-Ks including, but not limited to, PI 3-Kinase α, β, δ, and γ. An exemplary system is PI 3-Kinase (human) HTRF™ Assay from Upstate. […] Briefly, the assay is a time resolved FRET assay that indirectly measures PIP3 product formed by the activity of a PI3-K. The kinase reaction is performed in a microtiter plate (e.g., a 384 well microtiter plate). The total reaction volume is approximately 20 μl per well. In the first step, each well receives 2 μl of test compound in 20% dimethylsulphoxide resulting in a 2% DMSO final concentration. Next, approximately 14.5 μl of a kinase/PIP2 mixture (diluted in 1× reaction buffer) is added per well for a final concentration of 0.25-0.3 μg/ml kinase and 10 μM PIP2. The plate is sealed and incubated for 15 minutes at room temperature. To start the reaction, 3.5 μl of ATP (diluted in 1× reaction buffer) is added per well for a final concentration of 10 μM ATP. The plate is sealed and incubated for 1 hour at room temperature. The reaction is stopped by adding 5 μl of Stop Solution per well and then 5 μl of Detection Mix is added per well. The plate is sealed, incubated for 1 hour at room temperature, and then read on an appropriate plate reader. Data is analyzed and IC50s are generated using GraphPad Prism 5.

A further assay concerns the target T2, PI3K α (Homo sapiens, UniProt P42336).
T2 construct: purchased Upstate
Description: In vitro PI3K α inhibition assay. Type of assay: biochemical. On the procedure: (§2) Class I PI3-Ks can be either purchased (p110α/p85α, p110β/p85α, p110δ/p85α from Upstate, and p110γ from Sigma) or expressed as previously described (Knight et al., 2004). IC50 values are measured using either a standard TLC assay for lipid kinase activity (described below) or a high-throughput membrane capture assay. Kinase reactions are performed by preparing a reaction mixture containing kinase, inhibitor (2% DMSO final concentration), buffer (25 mM HEPES, pH 7.4, 10 mM MgCl2), and freshly sonicated phosphatidylinositol (100 μg/ml). Reactions are initiated by the addition of ATP containing 10 μCi of γ-32P-ATP to a final concentration of 10 or 100 μM and allowed to proceed for 5 minutes at room temperature. For TLC analysis, reactions are then terminated by the addition of 105 μl 1N HCl followed by 160 μl CHCl3:MeOH (1:1). The biphasic mixture is vortexed, briefly centrifuged, and the organic phase is transferred to a new tube using a gel loading pipette tip precoated with CHCl3. This extract is spotted on TLC plates and developed for 3-4 hours in a 65:35 solution of n-propanol:1M acetic acid. The TLC plates are then dried, exposed to a phosphorimager screen (Storm, Amersham), and quantitated. For each compound, kinase activity is measured at 10-12 inhibitor concentrations representing two-fold dilutions from the highest concentration tested (typically, 200 μM).
(§3) Other commercial kits or systems for assaying PI3-K activities are available. The commercially available kits or systems can be used to screen for inhibitors and/or agonists of PI3-Ks including, but not limited to, PI 3-Kinase α, β, δ, and γ. An exemplary system is PI 3-Kinase (human) HTRF™ Assay from Upstate. […] Briefly, the assay is a time resolved FRET assay that indirectly measures PIP3 product formed by the activity of a PI3-K. The kinase reaction is performed in a microtiter plate (e.g., a 384 well microtiter plate). The total reaction volume is approximately 20 μl per well. In the first step, each well receives 2 μl of test compound in 20% dimethylsulphoxide resulting in a 2% DMSO final concentration. Next, approximately 14.5 μl of a kinase/PIP2 mixture (diluted in 1× reaction buffer) is added per well for a final concentration of 0.25-0.3 μg/ml kinase and 10 μM PIP2. The plate is sealed and incubated for 15 minutes at room temperature. To start the reaction, 3.5 μl of ATP (diluted in 1× reaction buffer) is added per well for a final concentration of 10 μM ATP. The plate is sealed and incubated for 1 hour at room temperature. The reaction is stopped by adding 5 μl of Stop Solution per well and then 5 μl of Detection Mix is added per well. The plate is sealed, incubated for 1 hour at room temperature, and then read on an appropriate plate reader. Data is analyzed and IC50s are generated using GraphPad Prism 5.

The target in another assay is T3, PI3K β (Homo sapiens, UniProt P42338).
T3 construct: purchased Upstate
The assay can be described thus: In vitro PI3K β inhibition assay. Type of assay: biochemical. On the procedure: as §2, §3

Another assay has as its system Balb/c splenic B cells. The assay can be described thus: B cell activation and proliferation assay (Alamar Blue). The format is cell-based. To be noted: Mus musculus; for pEC50: read-out: B cell proliferation EC50; for EC50: read-out: B cell proliferation EC50 (nM). The procedure: The ability of one or more subject compounds to inhibit B cell activation and proliferation is determined according to standard procedures known in the art. For example, an in vitro cellular proliferation assay is established that measures the metabolic activity of live cells. The assay is performed in a 96 well microtiter plate using Alamar Blue reduction. Balb/c splenic B cells are purified over a Ficoll-Paque™ PLUS gradient followed by magnetic cell separation using a MACS B cell Isolation Kit (Miletenyi). Cells are plated in 90 μl at 50,000 cells/well in B Cell Media (RPMI+10% FBS+Penn/Strep+50 μM bME+5 mM HEPES). A compound disclosed herein is diluted in B Cell Media and added in a 10 μl volume. Plates are incubated for 30 min at 37° C. and 5% CO2 (0.2% DMSO final concentration). A 50 μl B cell stimulation cocktail is then added containing either 10 μg/ml LPS or 5 μg/ml F(ab′)2 Donkey anti-mouse IgM plus 2 ng/ml recombinant mouse IL4 in B Cell Media. Plates are incubated for 72 hours at 37° C. and 5% CO2. A volume of 15 μL of Alamar Blue reagent is added to each well and plates are incubated for 5 hours at 37° C. and 5% CO2. Alamar Blue fluoresce is read at 560Ex/590Em, and IC50 or EC50 values are calculated using GraphPad Prism 5.
For orientation: The colour change of resazurin is a common sign of viable cells or microbes.

A further assay has as its target T4, PI3K δ (Homo sapiens, UniProt O00329).
T4 construct: purchased Upstate
The assay can be described thus: In vitro PI3K δ inhibition assay. Type of assay: biochemical. The procedure: as §1

T3 sequence (P42338 whole entry): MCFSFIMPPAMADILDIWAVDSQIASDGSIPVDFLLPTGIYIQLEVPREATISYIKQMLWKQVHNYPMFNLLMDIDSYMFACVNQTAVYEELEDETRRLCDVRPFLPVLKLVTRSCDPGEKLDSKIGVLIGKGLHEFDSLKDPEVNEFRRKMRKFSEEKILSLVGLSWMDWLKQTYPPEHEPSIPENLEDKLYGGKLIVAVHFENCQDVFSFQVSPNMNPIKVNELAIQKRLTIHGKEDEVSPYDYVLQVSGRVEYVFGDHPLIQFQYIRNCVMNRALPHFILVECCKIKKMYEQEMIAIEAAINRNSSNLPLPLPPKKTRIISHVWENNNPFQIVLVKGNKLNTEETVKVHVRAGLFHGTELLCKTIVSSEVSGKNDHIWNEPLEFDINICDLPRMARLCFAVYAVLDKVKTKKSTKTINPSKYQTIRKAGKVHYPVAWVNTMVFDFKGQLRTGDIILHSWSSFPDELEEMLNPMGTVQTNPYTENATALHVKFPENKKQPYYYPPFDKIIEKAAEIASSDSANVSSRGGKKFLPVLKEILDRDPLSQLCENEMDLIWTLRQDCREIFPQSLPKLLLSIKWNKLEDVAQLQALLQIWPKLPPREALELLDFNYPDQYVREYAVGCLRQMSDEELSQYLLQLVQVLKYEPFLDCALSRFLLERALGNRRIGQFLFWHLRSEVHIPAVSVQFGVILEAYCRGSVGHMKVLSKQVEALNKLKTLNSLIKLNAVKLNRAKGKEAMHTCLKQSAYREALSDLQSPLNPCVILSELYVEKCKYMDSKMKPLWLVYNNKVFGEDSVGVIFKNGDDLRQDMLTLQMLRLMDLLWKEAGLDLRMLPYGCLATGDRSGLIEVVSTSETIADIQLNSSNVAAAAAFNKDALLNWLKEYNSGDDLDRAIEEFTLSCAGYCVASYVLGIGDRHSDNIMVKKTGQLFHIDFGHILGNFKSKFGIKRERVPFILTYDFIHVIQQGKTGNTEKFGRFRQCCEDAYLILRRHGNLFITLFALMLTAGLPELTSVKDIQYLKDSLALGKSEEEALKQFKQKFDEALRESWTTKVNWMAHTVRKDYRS
T3 sequence (P27986 whole entry partner): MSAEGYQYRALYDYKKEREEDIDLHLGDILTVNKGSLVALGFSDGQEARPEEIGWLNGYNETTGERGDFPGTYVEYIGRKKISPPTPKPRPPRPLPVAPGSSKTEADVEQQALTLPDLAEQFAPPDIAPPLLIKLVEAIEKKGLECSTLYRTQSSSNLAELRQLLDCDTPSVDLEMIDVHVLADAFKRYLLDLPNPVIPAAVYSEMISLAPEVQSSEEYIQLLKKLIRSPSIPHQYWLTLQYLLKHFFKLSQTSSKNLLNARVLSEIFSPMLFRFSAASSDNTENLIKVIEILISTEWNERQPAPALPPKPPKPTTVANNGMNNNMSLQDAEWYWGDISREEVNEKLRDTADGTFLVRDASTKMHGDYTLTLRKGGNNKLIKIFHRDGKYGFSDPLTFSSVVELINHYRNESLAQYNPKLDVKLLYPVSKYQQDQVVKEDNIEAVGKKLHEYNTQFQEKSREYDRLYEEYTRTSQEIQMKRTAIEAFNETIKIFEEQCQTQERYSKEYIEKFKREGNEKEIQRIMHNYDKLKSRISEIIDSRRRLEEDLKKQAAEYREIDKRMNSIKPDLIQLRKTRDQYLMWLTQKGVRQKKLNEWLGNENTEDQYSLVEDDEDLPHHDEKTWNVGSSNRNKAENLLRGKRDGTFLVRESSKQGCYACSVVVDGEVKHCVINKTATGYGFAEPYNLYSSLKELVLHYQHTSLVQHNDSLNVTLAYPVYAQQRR
T2 sequence (P42336 whole entry): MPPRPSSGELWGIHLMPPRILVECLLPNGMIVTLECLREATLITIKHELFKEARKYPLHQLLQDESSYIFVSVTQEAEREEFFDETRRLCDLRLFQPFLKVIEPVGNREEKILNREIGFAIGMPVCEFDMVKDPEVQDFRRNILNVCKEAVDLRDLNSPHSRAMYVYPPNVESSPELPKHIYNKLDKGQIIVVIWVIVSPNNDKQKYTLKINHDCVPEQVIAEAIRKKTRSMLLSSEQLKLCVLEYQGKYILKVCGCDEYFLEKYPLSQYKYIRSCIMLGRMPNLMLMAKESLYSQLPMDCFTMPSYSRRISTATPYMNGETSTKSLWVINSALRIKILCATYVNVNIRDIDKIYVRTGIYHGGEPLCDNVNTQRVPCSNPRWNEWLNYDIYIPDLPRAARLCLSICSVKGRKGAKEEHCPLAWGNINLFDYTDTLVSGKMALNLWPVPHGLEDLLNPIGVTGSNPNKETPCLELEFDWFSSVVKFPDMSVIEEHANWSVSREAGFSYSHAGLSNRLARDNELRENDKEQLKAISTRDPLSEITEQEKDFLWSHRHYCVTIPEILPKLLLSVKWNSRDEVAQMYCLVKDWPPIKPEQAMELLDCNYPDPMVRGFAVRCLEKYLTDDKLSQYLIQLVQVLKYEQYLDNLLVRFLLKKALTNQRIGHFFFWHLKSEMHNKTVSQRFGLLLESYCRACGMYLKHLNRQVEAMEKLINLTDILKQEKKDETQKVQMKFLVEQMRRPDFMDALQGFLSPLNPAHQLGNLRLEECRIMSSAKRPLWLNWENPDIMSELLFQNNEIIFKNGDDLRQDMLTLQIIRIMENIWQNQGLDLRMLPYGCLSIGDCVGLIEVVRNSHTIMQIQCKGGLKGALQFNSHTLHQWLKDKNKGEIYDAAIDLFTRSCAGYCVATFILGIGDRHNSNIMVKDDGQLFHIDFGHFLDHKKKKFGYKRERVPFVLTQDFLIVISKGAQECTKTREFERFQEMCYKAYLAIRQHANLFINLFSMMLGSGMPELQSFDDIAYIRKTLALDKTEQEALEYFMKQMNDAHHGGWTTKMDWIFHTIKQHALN
T2 sequence (P27986 whole entry partner): as the sequence (P27986 whole entry partner) above
T1 sequence (P48736 whole entry): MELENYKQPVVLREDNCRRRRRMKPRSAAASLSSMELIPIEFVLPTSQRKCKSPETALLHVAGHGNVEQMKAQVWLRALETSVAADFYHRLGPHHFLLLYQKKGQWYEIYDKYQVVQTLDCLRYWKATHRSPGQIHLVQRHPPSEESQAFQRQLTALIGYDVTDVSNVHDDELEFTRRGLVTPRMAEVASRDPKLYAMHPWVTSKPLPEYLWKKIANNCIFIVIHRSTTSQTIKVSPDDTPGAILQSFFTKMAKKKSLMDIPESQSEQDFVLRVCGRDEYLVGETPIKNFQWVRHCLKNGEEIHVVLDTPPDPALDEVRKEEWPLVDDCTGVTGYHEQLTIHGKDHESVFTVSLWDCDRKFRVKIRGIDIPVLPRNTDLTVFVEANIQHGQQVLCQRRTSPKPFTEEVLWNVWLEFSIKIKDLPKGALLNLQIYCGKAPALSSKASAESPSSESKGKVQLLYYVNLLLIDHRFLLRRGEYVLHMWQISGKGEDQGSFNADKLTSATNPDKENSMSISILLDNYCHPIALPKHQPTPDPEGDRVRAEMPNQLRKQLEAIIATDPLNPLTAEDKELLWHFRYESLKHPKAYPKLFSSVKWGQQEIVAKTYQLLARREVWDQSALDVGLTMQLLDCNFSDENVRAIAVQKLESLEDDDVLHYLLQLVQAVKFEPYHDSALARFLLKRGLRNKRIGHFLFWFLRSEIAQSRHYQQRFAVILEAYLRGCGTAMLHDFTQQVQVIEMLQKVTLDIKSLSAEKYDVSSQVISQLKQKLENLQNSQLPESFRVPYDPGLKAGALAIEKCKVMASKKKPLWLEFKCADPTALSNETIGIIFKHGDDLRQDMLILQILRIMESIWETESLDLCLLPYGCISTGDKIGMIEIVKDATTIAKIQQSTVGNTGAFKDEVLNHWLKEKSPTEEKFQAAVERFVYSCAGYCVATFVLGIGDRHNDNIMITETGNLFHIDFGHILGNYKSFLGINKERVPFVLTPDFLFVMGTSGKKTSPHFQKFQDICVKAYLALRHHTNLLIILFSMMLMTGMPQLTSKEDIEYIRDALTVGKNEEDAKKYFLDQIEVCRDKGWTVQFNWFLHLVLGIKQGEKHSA
T4 sequence (O00329 whole entry): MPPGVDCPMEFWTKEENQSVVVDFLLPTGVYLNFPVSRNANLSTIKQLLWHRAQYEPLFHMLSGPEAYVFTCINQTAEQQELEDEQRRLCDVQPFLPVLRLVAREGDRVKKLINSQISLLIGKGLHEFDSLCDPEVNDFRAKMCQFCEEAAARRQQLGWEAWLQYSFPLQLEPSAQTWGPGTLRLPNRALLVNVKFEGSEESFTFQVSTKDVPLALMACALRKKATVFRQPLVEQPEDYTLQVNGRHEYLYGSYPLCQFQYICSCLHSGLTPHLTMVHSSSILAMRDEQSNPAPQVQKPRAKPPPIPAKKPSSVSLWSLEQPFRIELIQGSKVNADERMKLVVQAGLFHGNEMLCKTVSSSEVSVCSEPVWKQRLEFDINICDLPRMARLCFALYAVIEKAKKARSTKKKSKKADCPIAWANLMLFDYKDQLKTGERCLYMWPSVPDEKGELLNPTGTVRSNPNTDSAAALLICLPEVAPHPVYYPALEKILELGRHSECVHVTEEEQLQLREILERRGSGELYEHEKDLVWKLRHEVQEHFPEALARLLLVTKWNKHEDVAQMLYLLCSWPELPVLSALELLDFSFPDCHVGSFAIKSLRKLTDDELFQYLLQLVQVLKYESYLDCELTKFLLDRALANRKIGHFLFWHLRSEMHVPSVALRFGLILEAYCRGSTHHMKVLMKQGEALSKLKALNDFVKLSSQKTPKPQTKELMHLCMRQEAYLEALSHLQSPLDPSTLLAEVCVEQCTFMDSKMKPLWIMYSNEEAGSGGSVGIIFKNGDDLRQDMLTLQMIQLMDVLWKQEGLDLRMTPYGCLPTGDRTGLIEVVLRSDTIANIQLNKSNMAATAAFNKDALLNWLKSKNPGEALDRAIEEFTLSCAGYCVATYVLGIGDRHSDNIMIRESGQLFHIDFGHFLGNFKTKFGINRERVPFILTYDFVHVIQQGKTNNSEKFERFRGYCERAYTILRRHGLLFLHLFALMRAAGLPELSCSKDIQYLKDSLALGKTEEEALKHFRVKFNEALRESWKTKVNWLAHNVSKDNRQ
T4 sequence (P27986 whole entry partner): as the sequence (P27986 whole entry partner) above

With `C[C@@H](Nc1ncnc2[nH]cnc12)c1cc2cccc(-c3cn[nH]c3)c2c(=O)n1C1CC1` [Compound 12], the IC50 was less than 100 nM against PI3K γ, less than 1000 nM at PI3K α, less than 1000 nM at PI3K β and less than 100 nM against PI3K δ. In addition, in the assay with Balb/c splenic B cells, the pEC50 was more than 7.00.

`C[C@@H](Nc1ncnc2[nH]cnc12)c1cc2cccc(-c3cnn(C)c3)c2c(=O)n1-c1ccccc1` (stereo in doubt) [Compound 19]: the IC50 was less than 100 nM on PI3K γ, more than 10000 nM on PI3K α, more than 10000 nM on PI3K β and less than 100 nM on PI3K δ. The pEC50 with Balb/c splenic B cells was more than 7.00.

Take `C=Cc1cccc2cc(C(C)Nc3ncnc4[nH]cnc34)n(-c3ccccc3)c(=O)c12` (stereo in doubt) [Compound 8, (S)-3-(1-((9H-purin-6-yl)amino)ethyl)-2-phenyl-8-vinylisoquinolin-1(2H)-one]: the IC50 is less than 100 nM against PI3K γ, less than 10000 nM against PI3K α, less than 10000 nM at PI3K β and less than 100 nM against PI3K δ. The pEC50 in the assay on Balb/c splenic B cells is more than 7.00.

For the compound `C[C@@H](Nc1ncnc2[nH]cnc12)c1cc2cccc(N(C)C)c2c(=O)n1-c1ccccc1` (stereo in doubt) [Compound 17], the IC50 against PI3K γ is less than 10000 nM; against PI3K α it was more than 10000 nM; at PI3K β, more than 10000 nM; on PI3K δ, less than 10000 nM. Moreover, the pEC50 in the assay on Balb/c splenic B cells was more than 7.00.

`CC(Nc1ncnc2[nH]cnc12)c1cc2cccc(C#N)c2c(=O)n1-c1ccccc1` (stereo in doubt) [Compound 16, (S)-3-(1-((9H-purin-6-yl)amino)ethyl)-1-oxo-2-phenyl-1,2-dihydroisoquinoline-8-carbonitrile]: the IC50 against PI3K γ was less than 100 nM; at PI3K α, more than 10000 nM; at PI3K β, less than 10000 nM; against PI3K δ, less than 100 nM. In addition, the pEC50 with Balb/c splenic B cells is more than 7.00.

On to `C[C@@H](Nc1ncnc2[nH]cnc12)c1cc2cccc(-c3cccc(F)c3)c2c(=O)n1-c1ccccc1` (stereo in doubt) [Compound 25], for which the IC50 against PI3K γ is less than 100 nM; against PI3K α, less than 10000 nM; against PI3K β, less than 10000 nM; on PI3K δ it was less than 100 nM. Besides, the EC50 with Balb/c splenic B cells is less than 100 nM.

On to `C[C@@H](Nc1ncnc2[nH]cnc12)c1cc2cccc(-c3cccnc3)c2c(=O)n1-c1ccccc1` (stereo in doubt) [Compound 7], for which the IC50 on PI3K γ is less than 100 nM; at PI3K α it was less than 10000 nM; at PI3K β, less than 10000 nM; against PI3K δ it was less than 100 nM. Further, the pEC50 in the assay on Balb/c splenic B cells was more than 7.00.

As for `C[C@@H](Nc1ncnc2[nH]cnc12)c1cc2cccc(NC3CCOCC3)c2c(=O)n1-c1ccccc1` (stereo in doubt) [Compound 40], the IC50 against PI3K γ was less than 10000 nM; on PI3K α it was more than 10000 nM; on PI3K β, more than 10000 nM; against PI3K δ it was less than 1000 nM.

As for `C[C@@H](Nc1ncnc2[nH]cnc12)c1cc2cccc(-c3cc[nH]n3)c2c(=O)n1-c1ccccc1` (stereo in doubt) [Compound 18], the IC50 is less than 100 nM on PI3K γ, more than 10000 nM against PI3K α, more than 10000 nM against PI3K β and less than 100 nM against PI3K δ. For the same compound, the pEC50 in the assay on Balb/c splenic B cells was more than 7.00.

For the compound `C[C@@H](Nc1ncnc2[nH]cnc12)c1cc2cccc(-c3ccncc3)c2c(=O)n1-c1ccccc1` (stereo in doubt) [Compound 21], the IC50 is less than 100 nM on PI3K γ, less than 10000 nM at PI3K α, less than 10000 nM against PI3K β and less than 100 nM against PI3K δ. Further, the pEC50 in the assay on Balb/c splenic B cells is more than 7.00.

As to `C[C@@H](Nc1ncnc2[nH]cnc12)c1cc2cccc(-c3cccnc3)c2c(=O)n1C1CC1` (stereo in doubt) [Compound 13], the IC50 against PI3K γ is less than 100 nM; at PI3K α, less than 10000 nM; on PI3K β, less than 1000 nM; against PI3K δ it was less than 100 nM. In addition, the EC50 with Balb/c splenic B cells was less than 100 nM.

As for `C[C@@H](Nc1ncnc2[nH]cnc12)c1cc2cccc(N3CCOCC3)c2c(=O)n1-c1ccccc1` (stereo in doubt) [Compound 39], the IC50 on PI3K γ was less than 1000 nM; against PI3K α it was more than 10000 nM; on PI3K β, more than 10000 nM; at PI3K δ it was less than 1000 nM.

As to `C[C@@H](Nc1ncnc2[nH]cnc12)c1cc2cccc(-c3cnn(C)c3)c2c(=O)n1C1CC1` (stereo in doubt) [Compound 20], the IC50 against PI3K γ is less than 1000 nM; on PI3K α it was less than 10000 nM; against PI3K β, less than 10000 nM; against PI3K δ it was less than 100 nM. The pEC50 in the assay with Balb/c splenic B cells was more than 7.00.

Turning to `CCc1cccc2cc(C(C)Nc3ncnc4[nH]cnc34)n(-c3ccccc3)c(=O)c12` (stereo in doubt) [Compound 9, (S)-3-(1-((9H-purin-6-yl)amino)ethyl)-8-ethyl-2-phenylisoquinolin-1(2H)-one], the IC50 against PI3K γ is less than 100 nM; against PI3K α, less than 10000 nM; against PI3K β, less than 10000 nM; against PI3K δ, less than 100 nM. Further, the pEC50 with Balb/c splenic B cells was more than 7.00.
